In patent US8563556B2, “Crystalline forms and two solvated forms of 4-amino-5-fluoro-3-[5-(4-methylpiperazin-1-yl)-1H-benzimidazol-2-yl]quinolin-2(1H)-one lactic acid salts” (Novartis AG, priority 2008, dated 2013):
Where a name gives a salt, the structure may show the parent alone. Read-outs that look alike come from different tables or passages of the source.

How the values were obtained:
[1] = Heat of solution in water at 25° C.; format: physicochemical
[2] = Solubility of crystalline forms in solvents; format: physicochemical; settings: for Solubility, Butanol: solvent butanol

Row | SMILES | Heat of solution in water (endothermic) ([1]; listed as Form B) | solubility ([2]; acetone, organic solvent or mixture, solvent acetone, temperature not given, read-out: Solubility, Acetone) | solubility ([2]; ethanol, organic solvent or mixture, solvent ethanol, temperature not given, read-out: Solubility, Ethanol) | solubility ([2]; isopropanol, organic solvent or mixture, solvent isopropanol, temperature not given, read-out: Solubility, Isopropanol) | Solubility, Butanol ([2]; temperature not given) | solubility ([2]; water, solvent water, temperature not given, read-out: Solubility, Water) | Heat of solution in water (endothermic) [1] | Solubility, Acetone ([2]; solvent acetone, temperature not given) | Solubility, Ethanol ([2]; solvent ethanol, temperature not given) | Solubility, Isopropanol ([2]; solvent isopropanol, temperature not given) | Solubility, Water ([2]; solvent water, temperature not given) | solubility ([2]; 0.1 N HCl, 25 °C, simulated gastric fluid, HCl 0.1N, 25° C., read-out: Solubility at 25° C., HCl 0.1N) | solubility ([2]; ethanol, 25 °C, organic solvent or mixture, ethanol, 25° C., read-out: Solubility at 25° C., ethanol) | Solubility at 25° C., water ([2]; water, 25° C.)
1 | CN1CCN(c2ccc3nc(-c4c(N)c5c(F)cccc5[nH]c4=O)[nH]c3c2)CC1 [Anhydrous form II, 4-Amino-5-fluoro-3-[5-(4-methylpiperazin-1-yl)-1H-benzimidazol-2-yl]quinolin-2(1H)-one lactate anhydrous form II] | 2.2 kcal/mol | 510 µg/mL | 710 µg/mL | 80 µg/mL | 340 µg/mL | 68000 µg/mL | – | – | – | – | – | – | – | –
2 | CN1CCN(c2ccc3nc(-c4c(N)c5c(F)cccc5[nH]c4=O)[nH]c3c2)CC1 [Anhydrous form A, 4-amino-5-fluoro-3-[5-(4-methylpiperazin-1-yl)-1H-benzimidazol-2-yl]quinolin-2(1H)-one lactic acid salt] | – | – | – | – | 950 µg/mL | – | 1.1 kcal/mol | 840 µg/mL | 840 µg/mL | 160 µg/mL | 107000 µg/mL | – | – | –
3 | CN1CCN(c2ccc3nc(-c4c(N)c5c(F)cccc5[nH]c4=O)[nH]c3c2)CC1 [hemi-pentahydrate, 4-Amino-5-fluoro-3-[5-(4-methylpiperazin-1-yl)-1H-benzimidazol-2-yl]quinolin-2(1H)-one lactate hemi-pentahydrate] | – | – | – | – | – | – | 7.17 kcal/mol | – | – | – | – | 55000 µg/mL | 2000 µg/mL | 6200 µg/mL
